This is an account of results in USRE50663E1, “Heterocycle derivatives as pesticides” (Bayer Aktiengesellschaft, priority 2017, dated 2025).

Series [1] can be described thus: logP by HPLC on reversed-phase column (C18), acidic range. Format: physicochemical. The note with it: reversed-phase HPLC column (C18), formic acid in water/acetonitrile. The method, then:
The logP values were determined according to EEC Directive 79/831 Annex V.A8 by HPLC (high-performance liquid chromatography) on a reversed-phase column (C18) using the following methods:
Calibration was carried out using a homologous series of straight-chain alkan-2-ones (having 3 to 16 carbon atoms) with known logP values. The values between successive alkanones are determined by linear regression.

For series [2], the system named is larvae of the mustard beetle (Phaedon cochleariae). Description: Comparative Phaedon cochleariae spray test (PHAECO). As to conditions: 168 h, 7 dat, read-out: % efficacy. It counts as in vivo. Here is the method: (§1) Solvent: 14 parts by weight of dimethylformamide
(§2) Emulsifier: alkylaryl polyglycol ether
(§3) To produce a suitable active compound formulation, 1 part by weight of active compound is dissolved with the specified parts by weight of solvent and made up to the desired concentration with water containing an emulsifier concentration of 1000 ppm. To produce further test concentrations, the formulation is diluted with emulsifier-containing water. If the addition of ammonium salts or/and penetrants is required, these are each added in a concentration of 1000 ppm to the formulation solution.
Cabbage leaves (Brassica oleracea) are sprayed with an active ingredient formulation of the desired concentration and populated with larvae of the mustard beetle (Phaedon cochleariae).
After the desired time, the kill in % is determined. 100% means that all the beetle larvae have been killed; 0% means that no beetle larvae have been killed.

Series [3] relates to adult cat fleas (Ctenocephalides felis). The series is described as follows: Ctenocephalides felis in vitro contact test with adult cat fleas. Format: in vivo. As to conditions: application rate 5 μg/cm^2 (=500 g/ha), after 48 h, dead or moribund fleas. The method, then:
(§4) For the coating of the test tubes, 9 mg of active compound are first dissolved in 1 ml of acetone p.a. and then diluted to the desired concentration with acetone p.a. 250 μl of the solution are distributed homogeneously on the inner walls and the base of a 25 ml glass tube by turning and rocking on an orbital shaker (rocking rotation at 30 rpm for 2 h). With 900 ppm of active compound solution and internal surface area 44.7 cm^2, given homogeneous distribution, an area-based dose of 5 μg/cm^2 is achieved.
After the solvent has evaporated off, the tubes are populated with 5-10 adult cat fleas (Ctenocephalides felis), sealed with a perforated plastic lid and incubated in a horizontal position at room temperature and ambient humidity. After 48 h, efficacy is determined. To this end, the tubes are stood upright and the fleas are knocked to the base of the tube. Fleas which remain motionless at the base or move in an uncoordinated manner are considered to be dead or moribund.
100% efficacy means that all the fleas were dead or moribund. 0% efficacy means that no fleas were harmed.

Series [4] has as its system larvae of the mustard beetle (Phaedon cochleariae). Description: Phaedon cochleariae spray test. Format: in vivo. The note with it: foliar, 168 h, 100 g/ha, after 7 days, Chinese cabbage leaf discs, read-out: efficacy. In short, it runs like this:
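Chinese cabbage leaf discs sprayed with compound formulated in acetone/DMF and emulsifier-containing water, then infested with mustard beetle larvae after drying. Efficacy (% larvae killed) scored after 7 days.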

The subject of series [5] is L2 larvae of the banded cucumber beetle (Diabrotica balteata). The series is described as follows: Comparative Diabrotica balteata drench test (DIABBA D). The note with it: soil, 192 h, 8 dat, read-out: % efficacy. Format: in vivo. The method, then: Solvent: 7 parts by weight of dimethylformamide
Emulsifier: 2 parts by weight of alkylaryl polyglycol ether
To produce a suitable active ingredient formulation, 1 part by weight of active ingredient is mixed with the specified amounts of solvent and emulsifier, and the concentrate is diluted with water to the desired concentration, it being necessary to take into account the volume of soil which is drenched. It should be ensured that a concentration of 40 ppm of emulsifier in the soil is not exceeded. To produce further test concentrations, water is used for dilution.
In each case 5 maize corns (Zea mays) are sown into pots filled with earth, and the next day the pots are watered with the active compound preparation of the desired concentration. After one day, about 25 L2 larvae of the banded cucumber beetle (Diabrotica balteata) are added.
After 8 days, the efficacy in % is determined. 100% means that all 5 plants have germinated and grown; 0% means that none of the plants has emerged.

The subject of series [6] is caterpillars of the fall armyworm (Spodoptera frugiperda). The series is described as follows: Spodoptera frugiperda spray test. It counts as in vivo. As to conditions: foliar, 168 h, 100 g/ha, after 7 days, maize leaf discs, read-out: efficacy. A digest of the protocol: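 Maize leaf discs sprayed with compound formulated in acetone/dimethylformamide and diluted in water with 1000 ppm alkylaryl polyglycol ether emulsifier, then infested with fall armyworm caterpillars once dry. Efficacy read after 7 days as % caterpillars killed (100% = all dead, 0% = none).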

The test system of series [7] is adult dog ticks (Rhipicephalus sanguineus). The series is described as follows: Rhipicephalus sanguineus in vitro contact test with adult brown dog ticks. Format: in vivo. The note with it: application rate 5 μg/cm^2, after 48 h, dead or moribund ticks. The method, then:
as §4
After the solvent has evaporated off, the tubes are populated with 5-10 adult dog ticks (Rhipicephalus sanguineus), sealed with a perforated plastic lid and incubated in a horizontal position in the dark at room temperature and ambient humidity. After 48 h, efficacy is determined. To this end, the ticks are knocked to the base of the tube and incubated on a hotplate at 45-50° C. for not more than 5 min. Ticks which remain motionless on the base or move in such an uncoordinated manner that they are unable to deliberately avoid the heat by climbing upwards are considered to be dead or moribund.
An efficacy of 100% means that all the ticks were dead or moribund. 0% efficacy means that none of the ticks were harmed.

Series [8] deals with caterpillars of the cotton bollworm (Heliothis armigera). Description: Comparative Heliothis armigera spray test (HELIAR). Format: in vivo. The note with it: Helicoverpa armigera, 168 h, 7 dat, read-out: % efficacy. Here is the method: as §1, §2, §3
Cotton plants (Gossypium hirsutum) are sprayed with an active compound formulation of the desired concentration and, after drying, populated with caterpillars of the cotton bollworm (Heliothis armigera).
After the desired time, the kill in % is determined. 100% means that all caterpillars have been killed; 0% means that none of the caterpillars have been killed.

For series [9], the system named is adult cat fleas (Ctenocephalides felis). The series is described as follows: Ctenocephalides felis oral test. It counts as in vivo. The note with it: 48 h, 100 ppm in citrated cattle blood, after 2 days, read-out: efficacy (kill). A digest of the protocol:
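Test compound in DMSO, diluted in citrated cattle blood to the test concentration and offered to ~20 unfed adults through a parafilm membrane. Kill % scored after 2 days (100% = all fleas dead, 0% = none).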

Turning to `CCS(=O)(=O)c1c(-c2nc3cc(C(F)(F)F)cnc3n2C)nc2cc(C3(C#N)CC3)ccn12` [Example I-11, 1-{3-(Ethylsulfonyl)-2-[3-methyl-6-(trifluoromethyl)-3H-imidazo[4,5-b]pyridin-2-yl]imidazo[1,2-a]pyridin-7-yl}cyclopropanecarbonitrile], in series [1], the chromatographic logP came to 2.88. For the same compound, the Emax at 0.8 ppm in series [2] (0.8 ppm) came out at 60%; in [5] (0.8 ppm) it was 80%. Besides, the Emax at 4 ppm in series [2] (4 ppm) and in series [5] (4 ppm) was 100% throughout. Besides, the efficacy in series [3] and in series [7] was 100% throughout. The pest or weed control at 100 g/ha in [4] and in series [6] was 100% each time. In addition, the Emax at 0.16 ppm in series [8] was 100%. For the same compound, the pest or weed control at 100 ppm in series [9] was 100%.
